Data from patent US20160345855A1, “METHODS OF TREATING BRAIN DISORDERS OR IDENTIFYING BIOMARKERS RELATED THERETO” (NORTHWESTERN UNIVERSITY, priority 2013, published 2016).
Entries after “also recorded” stand apart in the source; their conditions may differ. Peptide text beside a SMILES is read from it.

What was measured:
NMDAR [1] = settings: cited from earlier work; for side effects: human clinical studies; for Hamilton Depression Rating Score: patients suffering with refractory depression
healthy young adults [2] = test: fMRI (BOLD) during item category association task, Example 1; type: in vivo, humans; settings: IV-injection of 5 mg
Method: GLYX-13 was used to investigate whether this compound changed functional activation in hippocampal and related learning regions healthy young adults.
Twenty-four healthy individuals underwent functional magnetic resonance imaging (fMRI) after randomization to IV-injection of 5 mg of GLYX-13 (n=12) or placebo (n=12). Groups were matched on demographic factors, estimated IQ, and dose volume. While undergoing scanning, subjects performed an item category association task in which they learned over repeated cycles which of two categories a series of numbers were assigned. Change in blood-oxygen level dependent (BOLD) activity was measured during correctly performed trials, and differences in activation between groups were compared across learning cycles.

healthy young adults [3] = test: fMRI (BOLD) during item category association task, Example 2 (randomized, single-blind, parallel group); type: in vivo, humans; settings: single IV 5 mg/kg
Text: We investigated whether a single IV administration of GLYX-13 compared to placebo changed functional activation among healthy young adults performing a learning and memory task while undergoing fMRI.
The inclusion criteria for adult subjects participating in the study were as follows (i) 18-40 years of age; (ii) estimated IQ within what is considered to be the normal range (80-120); and (iii) no personal medical, neurologic, or psychiatric history, or reported history of psychiatric illness among first degree relatives.
After initial (Visit 1), patients were randomized to either single IV administration of GLYX-13 (5 mg/kg) or placebo on subsequent visit (Visit 2). fMRI studies started within 20 minutes post-infusion. Subjects returned approximately one week after Visit 2 to complete behavioral tasks in scanner and assess any adverse effects.
Item Category Association Task (See, e.g., Onur O A, Schlaepfer T E, Kukolja J, Bauer A, Jeung H, Patin A, Otte D-M, Shah N J, Maier W, Kendrick K M, Fink G R, Hurleman R (2010).
The N-methyl-D-aspartate receptor co-agonist D-Cycloserine facilitates declarative learning and hippocampal activity in humans. Biol. Psychiatry, 67, 1205). Subjects were asked to learn arbitrary group membership (A or B) of 3-digit numbers. Visual feedback was provided immediately following choice (button press) to indicate correct item category association. There were eight category memberships to be learned, which were presented over eight cycles (i.e., 7 repetitions) for a total of 64 trials per run; three sets of learning runs (each with different 3-digit number sets. See FIG. 3.
3T TIM Trio system (Siemens Medical Systems) with 32 channel coil. […]

NMDAR [4] = settings: in vivo; cited from earlier work

| SMILES | side effects (NMDAR [1]) | Hamilton Depression Rating Score (NMDAR [1]) | regions in which Placebo demonstrated greater activation compared to GLYX-13 (healthy young adults [2]) | BOLD activation over learning cycles compared to Placebo (healthy young adults [2]; n=12 per group, correctly performed trials, hippocampus, parahippocampal gyrus, amygdala, superior temporal, middle frontal, inferior frontal gyri) | task accuracy over successive cycles (healthy young adults [2]; both groups (GLYX-13 and placebo)) | number of identified regions with significant group by cycle interaction effects on extracted mean % signal change (healthy young adults [3]; FIGS. 7A-7F) | behavioral task performance (learning effect across cycle) (healthy young adults [3]; compared with Placebo, FIG. 5) | BOLD activation / extracted mean % signal change vs. Placebo (healthy young adults [3]; correct trials, FIGS. 7A-7F, 5 mg/kg) | antidepressant activity (NMDAR [4]) | nootropic, neuroprotective, antinociceptive and cognitive activity (NMDAR [4]) | psychotomimetic side effects (NMDAR [4]) |
| --- | --- | --- | --- | --- | --- | --- | --- | --- | --- | --- | --- |
| C[C@@H]([C@@H](O)c1ccc(O)cc1)N1CCC(O)(c2ccccc2)CC1 [CPC-101.606] | severe | significant reductions | – | – | – | – | – | – | – | – | – |
| C[C@@H](O)[C@H](N)C(=O)N1CCC[C@H]1C(=O)N1CCC[C@H]1C(=O)N[C@H](C(N)=O)[C@@H](C)O [GLYX-13, L-threonyl-L-prolyl-L-prolyl-L-threonine amide] (H-TPPT-NH2) | – | – | no regions | enhanced activation over learning cycles in several learning and memory regions | increased task accuracy over successive cycles | six | robust and comparable learning effect across cycle | enhanced activation; also recorded: enhanced BOLD signal change | rapid-acting, robust, and sustained antidepressant activity | exhibits nootropic, neuroprotective and antinociceptive activity, and enhances learning, memory and cognition in vivo | lack the pyschotomimetic side effects |
| CNC1(c2ccccc2Cl)CCCCC1=O (stereo not shown) [ketamine] | severe | significant reductions | – | – | – | – | – | – | – | – | – |
